According to PMC3448010 (Biochemistry, 2012):
Values joined by “and” are separate entries in the source; they are usually repeats but may differ in a detail not shown here. Identical values can stand only once. Like-named read-outs stand apart in the source and are kept apart here.

Assays:
SULT2A1 [1] = biological target: T1, SULT2A1 (Homo sapiens, UniProt Q06520); test: Equilibrium ligand binding monitored by intrinsic enzyme fluorescence
T1 sequence (Q06520 1-285): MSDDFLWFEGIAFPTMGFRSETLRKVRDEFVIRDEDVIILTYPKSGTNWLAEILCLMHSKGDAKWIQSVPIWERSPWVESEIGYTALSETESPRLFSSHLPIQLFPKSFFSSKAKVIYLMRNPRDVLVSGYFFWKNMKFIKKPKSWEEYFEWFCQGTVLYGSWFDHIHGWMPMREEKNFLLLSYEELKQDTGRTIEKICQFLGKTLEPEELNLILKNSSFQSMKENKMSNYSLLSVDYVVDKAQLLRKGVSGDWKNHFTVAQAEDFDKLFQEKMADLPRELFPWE

SULT2A1 [2] = biological target: T1, SULT2A1; details: read-out: typical Km; cited from earlier work
SULT2A1 [3] = biological target: T1, SULT2A1; test: Initial-rate kinetics of raloxifene and DHEA sulfation; details: for Km: 25 °C, pH 7.4, sequential Bi-Bi fit; for Kia: co-substrate extrapolated to zero
SULT2A1 [4] = biological target: T1, SULT2A1; test: Presteady state
[5] = cited from earlier work

Q: For `Nc1ncnc2c1ncn2[C@@H]1O[C@H](COP(=O)(O)O)[C@@H](OP(=O)(O)O)[C@H]1O` [PAP, 3′, 5′-diphosphoadenosine], which Kd (SULT2A1 [1]; Kd, enzyme species DHEA·E·) is on record?
A: Its Kd is 210 nM.

Q: What about the Kd (SULT2A1 [1]; Kd, enzyme species Ral·E·) of the same molecule?
A: The Kd was 6000 nM.

Q: With `Nc1ncnc2c1ncn2[C@@H]1O[C@H](COP(=O)(O)OS(=O)(=O)O)[C@@H](OP(=O)(O)O)[C@H]1O` [PAPS, 3′-phosphoadenosine 5′-phosphosulfate] as the molecule, how does the Kd (SULT2A1 [1]; enzyme species E· (unliganded)) read?
A: Its Kd is 280 nM.

Q: And the Km (SULT2A1 [2])?
A: Its Km is about 0.3 µM.

Q: What about the kcat (SULT2A1 [3]; DHEA/PAPS substrate pair) of the same molecule?
A: Its kcat is 0.7 (0.03) sec^−1.

Q: And the Km (SULT2A1 [3]; DHEA/PAPS substrate pair)?
A: The Km was 0.39 µM.

Q: What about the Kia (SULT2A1 [3]; DHEA/PAPS substrate pair) of the same molecule?
A: The Kia was 0.47 (0.06) μM.

Q: What about the kcat (SULT2A1 [3]; RAL/PAPS substrate pair) of the same molecule?
A: Its kcat is 0.10 (0.01) sec^−1.

Q: And the Km (SULT2A1 [3]; RAL/PAPS substrate pair)?
A: The Km was 5.9 µM.

Q: What about the Kia (SULT2A1 [3]; RAL/PAPS substrate pair) of the same molecule?
A: The Kia was 0.24 (0.04) μM.

Q: And the koff (SULT2A1 [4]; enzyme species DHEA·E·)?
A: The koff was 2.1 s^−1 and 1.9 (0.2) s^−1.

Q: What about the koff (SULT2A1 [4]; enzyme species E· (unliganded)) of the same molecule?
A: Its koff is 2.1 s^−1 and 2.3 (0.3) s^−1.

Q: What about the koff (SULT2A1 [4]; enzyme species RAL·E·, raloxifene 50 μM) of the same molecule?
A: Its koff is 50 (2) s^−1.

Q: What about the “faster escape from PAPS·E·raloxifene than from PAPS·E and PAPS·E·DHEA” value (SULT2A1 [4]; off-rate constants) of the same molecule?
A: Its value is 24 fold.

Q: What about the “weakening in PAPS affinity with raloxifene bound” value (SULT2A1 [4]; raloxifene prevents gate closure) of the same molecule?
A: The value was 21 fold.

Q: What about the Kd (SULT2A1 [4]; read-out: Kd (koff/kon), enzyme species DHEA·E·) of the same molecule?
A: The Kd was 240 nM.

Q: What about the Kd (SULT2A1 [4]; read-out: Kd (koff/kon), enzyme species E· (unliganded)) of the same molecule?
A: Its Kd is 270 nM.

Q: What about the Kd (SULT2A1 [4]; read-out: Kd (koff/kon), enzyme species RAL·E·, raloxifene 50 μM) of the same molecule?
A: Its Kd is 6000 nM.

Q: Which Kd (SULT2A1 [1]; Kd, enzyme species E· (unliganded)) does the source give for `C[C@]12CC[C@H](O)CC1=CC[C@@H]1[C@@H]2CC[C@]2(C)C(=O)CC[C@@H]12` [DHEA, 5-dehydroepiandrosterone] here?
A: Its Kd is 1000 nM.

Q: What about the Kd (SULT2A1 [1]; Kd, enzyme species PAP·E·, global fit of titrations at five PAP concentrations) of the same molecule?
A: The Kd was 1100 nM.

Q: And the “synergy between PAP and acceptor” value (SULT2A1 [1]; global fit, five PAP concentrations)?
A: Its value is 1.1 (± 0.2).

Q: And the “kcat/Km relative to raloxifene” value (SULT2A1 [3]; DHEA vs raloxifene)?
A: Its value is 135 fold.

Q: What about the Kia (SULT2A1 [3]; DHEA/PAPS substrate pair) of the same molecule?
A: Its Kia is 1.8 (0.1) μM.

Q: And the “positive synergy in the interaction with PAPS” value (SULT2A1 [3]; from kinetic constants)?
A: Its value is 1.4 fold.

Q: What about the Kd (SULT2A1 [4]) of the same molecule?
A: Its Kd is 1100 nM.

Q: What about the koff (SULT2A1 [4]; enzyme species E· (unliganded)) of the same molecule?
A: The koff was 2.1 s⁻¹.

Q: And the koff (SULT2A1 [4]; enzyme species PAPS·E·)?
A: The koff was 3 s⁻¹.

Q: And the sulfated in-vivo [5]?
A: Its sulfated in-vivo is over 99%.
